Literature values in patent US7807404B2, “Mutated truncated mt-pfkA gene for the synthesis of active shorter fragment of 6-phosphofructo-1-kinase” (Kemijski Institut, priority 2006, dated 2010).

Assays:
PFK1 [1] = biological target: T1, PFK1 (Aspergillus niger, UniProt P78985); conditions: citrate 10 mM
T1 construct: The PFK1 isolated from Aspergillus niger cells; host or cells: Aspergillus niger cells

PFK1 [2] = conditions: citrate 10 mM
[3] = system: PFK1 with 8 amino acid residues cleaved from the C-terminal part
PFK1 [4] = biological target: T2, PFK1 (Oryctolagus cuniculus, UniProt P00511)
T2 construct: the enzyme, isolated from the rabbit muscle; host or cells: rabbit muscle
T2 sequence (P00511 2-780 limits assumed): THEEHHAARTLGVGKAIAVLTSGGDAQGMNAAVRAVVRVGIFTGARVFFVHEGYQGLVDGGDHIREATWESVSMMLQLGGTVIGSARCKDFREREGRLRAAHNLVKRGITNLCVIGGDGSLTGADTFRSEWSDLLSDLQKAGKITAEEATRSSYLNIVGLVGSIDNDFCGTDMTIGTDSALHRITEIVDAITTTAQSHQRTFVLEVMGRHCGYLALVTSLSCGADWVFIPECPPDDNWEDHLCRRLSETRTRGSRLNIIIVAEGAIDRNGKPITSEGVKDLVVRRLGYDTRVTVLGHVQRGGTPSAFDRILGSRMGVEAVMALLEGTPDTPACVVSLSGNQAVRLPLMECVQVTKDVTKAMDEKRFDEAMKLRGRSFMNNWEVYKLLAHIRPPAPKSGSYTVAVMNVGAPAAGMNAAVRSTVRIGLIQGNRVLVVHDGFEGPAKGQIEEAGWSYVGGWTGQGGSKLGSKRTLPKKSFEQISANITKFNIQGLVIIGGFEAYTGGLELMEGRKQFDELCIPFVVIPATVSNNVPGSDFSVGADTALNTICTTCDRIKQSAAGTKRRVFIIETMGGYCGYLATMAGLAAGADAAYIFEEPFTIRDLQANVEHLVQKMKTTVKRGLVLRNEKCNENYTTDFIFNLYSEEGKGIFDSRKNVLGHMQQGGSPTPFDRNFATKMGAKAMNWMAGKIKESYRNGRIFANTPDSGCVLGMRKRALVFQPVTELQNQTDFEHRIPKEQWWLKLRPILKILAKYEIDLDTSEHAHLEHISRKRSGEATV

T1 sequence (P78985 whole entry): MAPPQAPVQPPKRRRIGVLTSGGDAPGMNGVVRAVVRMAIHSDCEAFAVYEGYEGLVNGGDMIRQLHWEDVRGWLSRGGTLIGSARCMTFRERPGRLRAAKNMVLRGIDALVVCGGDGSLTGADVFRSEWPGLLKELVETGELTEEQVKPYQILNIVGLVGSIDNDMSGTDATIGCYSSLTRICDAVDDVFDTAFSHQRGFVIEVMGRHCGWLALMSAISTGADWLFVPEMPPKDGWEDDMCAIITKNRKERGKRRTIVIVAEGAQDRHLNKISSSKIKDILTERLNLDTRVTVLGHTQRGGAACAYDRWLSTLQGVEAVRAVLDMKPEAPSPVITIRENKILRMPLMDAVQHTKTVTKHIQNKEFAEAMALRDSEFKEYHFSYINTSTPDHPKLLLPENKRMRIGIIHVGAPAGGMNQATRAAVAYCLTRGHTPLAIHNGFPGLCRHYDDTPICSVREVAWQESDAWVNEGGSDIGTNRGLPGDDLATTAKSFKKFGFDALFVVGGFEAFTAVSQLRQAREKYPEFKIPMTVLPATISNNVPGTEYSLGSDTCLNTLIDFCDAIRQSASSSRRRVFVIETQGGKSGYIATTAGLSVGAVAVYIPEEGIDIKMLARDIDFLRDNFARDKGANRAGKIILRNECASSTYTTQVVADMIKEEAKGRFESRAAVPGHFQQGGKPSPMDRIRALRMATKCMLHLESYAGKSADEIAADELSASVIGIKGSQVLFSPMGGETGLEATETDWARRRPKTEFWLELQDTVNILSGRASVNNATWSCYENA

SMILES: O=C(O)CC(O)(CC(=O)O)C(=O)O [citrate]
- effect on catalytic activity (PFK1 [1]): almost prevented its catalytic activity
- maximal velocity retained (PFK1 [2]): 20%
- citrate concentration at which the enzyme lost its activity [3]: 10 mM
- citrate concentration at which the enzyme was completely inactivated (PFK1 [4]): 2.5 mM
